Measured values published in ChEMBL document CHEMBL4393715, “Design, synthesis and biological evaluation of the thioether-containing lenalidomide analogs with anti-proliferative activities” (Eur J Med Chem, 2019).
pIC50: −log10 of the molar value. Blank lines part the entries; values can stand above or below the compound they belong to.

Tests used:
[1] = Antiproliferative activity against human Mino cells measured after 72 hrs by CellTiter96 Aqueous non-radioactive cell proliferation assay; assay type: functional, cell-based
[2] = MRT (infinity) in BALB/c mouse at 5 mg/kg, iv and measured up to 24 hrs by LC-MS/MS analysis; assay type: ADME, organism-based; conditions: in vivo
[3] = AUC (infinity) in BALB/c mouse at 5 mg/kg, iv and measured up to 24 hrs by LC-MS/MS analysis; assay type: ADME, organism-based; design: dose 5 mg/kg, route intravenous, time infinity; conditions: in vivo
[4] = Clearance in BALB/c mouse at 5 mg/kg, iv and measured up to 24 hrs by LC-MS/MS analysis; assay type: ADME, organism-based; conditions: in vivo
[5] = Volume of distribution at steady state in BALB/c mouse at 5 mg/kg, iv and measured up to 24 hrs by LC-MS/MS analysis; assay type: ADME, organism-based; conditions: in vivo, read-out: Vdss
[6] = Half-life in BALB/c mouse at 5 mg/kg, iv and measured up to 24 hrs by LC-MS/MS analysis; assay type: ADME, organism-based; conditions: in vivo
[7] = AUC (infinity) in BALB/c mouse at 20 mg/kg, po and measured up to 24 hrs by LC-MS/MS analysis; assay type: ADME, organism-based; design: dose 20 mg/kg, route oral, time infinity; conditions: in vivo
[8] = Terminal elimination half life in BALB/c mouse at 20 mg/kg, po and measured up to 24 hrs by LC-MS/MS analysis; assay type: ADME, organism-based; conditions: in vivo, read-out: LambdaZ (converted)
[9] = Tmax in BALB/c mouse at 20 mg/kg, po and measured up to 24 hrs by LC-MS/MS analysis; assay type: ADME, organism-based; conditions: in vivo
[10] = Cmax in BALB/c mouse at 20 mg/kg, po and measured up to 24 hrs by LC-MS/MS analysis; assay type: ADME, organism-based; design: dose 20 mg/kg, route oral; conditions: in vivo
[11] = Oral bioavailability in BALB/c mouse at 20 mg/kg and measured up to 24 hrs by LC-MS/MS analysis; assay type: ADME, organism-based; conditions: in vivo
MV4-11 = test: Antiproliferative activity against human MV411 cells measured after 168 hrs by CellTiter96 Aqueous non-radioactive cell proliferation assay; assay type: functional, cell-based; conditions: MV4-11, 168 h
MM1.S = test: Antiproliferative activity against human MM1S cells measured after 168 hrs by CellTiter96 Aqueous non-radioactive cell proliferation assay; assay type: functional, cell-based
[12] = Toxicity in CB-17 SCID mouse xenografted with human RPMI8226 cells assessed as body weight at 60 mg/kg/day, po and measured after day 18 (reference value: 20.1 to 20.4 g); assay type: organism-based; conditions: in vivo
RPMI-8226 [13] = test: Antitumour activity against human RPMI8226 cells xenografted in CB-17 SCID mouse assessed as tumour volume at 60 mg/kg/day, po measured after day 18 (reference value: 153 to 154 mm3); assay type: functional
RPMI-8226 [14] = test: Antitumour activity against human RPMI8226 cells xenografted in CB-17 SCID mouse assessed as relative tumour volume at 60 mg/kg/day, po measured twice a week for 21 days; assay type: functional
RPMI-8226 [15] = test: Antitumour activity against human RPMI8226 cells xenografted in CB-17 SCID mouse assessed as inhibition of tumour growth at 60 mg/kg/day, po measured twice a week for 21 days relative to control; assay type: functional; design: scale not given: the % may be the effect or the level left
[16] = Toxicity in CB-17 SCID mouse xenografted with human RPMI8226 cells assessed as mortality at 60 mg/kg/day, po and measured after day 18; assay type: organism-based; conditions: in vivo
PBMC [17] = test: Antiinflammatory activity in human PBMC cells assessed as reduction in LPS-induced TNF-alpha production preincubated for 1 hr followed by LPS addition and measured after 18 to 20 hrs by ELISA; assay type: functional, cell-based
Z-138 = test: Antiproliferative activity against human Z138 cells measured after 72 hrs by CellTiter96 Aqueous non-radioactive cell proliferation assay; assay type: functional, cell-based; conditions: Z-138, 72 h
JeKo-1 = test: Antiproliferative activity against human JeKo1 cells measured after 72 hrs by CellTiter96 Aqueous non-radioactive cell proliferation assay; assay type: functional, cell-based; conditions: JeKo-1, 72 h
Raji = test: Antiproliferative activity against human Raji cells measured after 168 hrs by CellTiter96 Aqueous non-radioactive cell proliferation assay; assay type: functional, cell-based
PBMC [18] = test: Cytotoxicity against human PBMC cells by CellTiter96 Aqueous non-radioactive cell proliferation assay; assay type: cell-based
U-266 = test: Antiproliferative activity against human U266 cells measured after 72 hrs by CellTiter96 Aqueous non-radioactive cell proliferation assay; assay type: functional, cell-based; conditions: U-266, 72 h
RPMI-8226 [19] = test: Antiproliferative activity against human RPMI8226 cells measured after 72 hrs by CellTiter96 Aqueous non-radioactive cell proliferation assay; assay type: functional, cell-based; conditions: RPMI-8226, 72 h
THP-1 = test: Antiproliferative activity against human THP1 cells measured after 168 hrs by CellTiter96 Aqueous non-radioactive cell proliferation assay; assay type: functional, cell-based; conditions: THP-1, 168 h
Kasumi 1 = test: Antiproliferative activity against human Kasumi-1 cells measured after 168 hrs by CellTiter96 Aqueous non-radioactive cell proliferation assay; assay type: functional, cell-based; conditions: Kasumi 1, 168 h

SMILES: CNC(=O)c1ccc(CSc2cccc3c2CN(C2CCC(=O)NC2=O)C3=O)cc1 (stereo unspecified)
pIC50 [1]: 7.55

SMILES: NC(=O)c1ccc(CSc2cccc3c2CN(C2CCC(=O)NC2=O)C3=O)cc1 (stereo unspecified)
pIC50 [1]: 7.45

SMILES: CC(C)(C)OC(=O)c1ccc(CSc2cccc3c2CN(C2CCC(=O)NC2=O)C3=O)cc1 (stereo unspecified)
pIC50 [1]: 8.96

SMILES: CC1CC(C)CN(C(=O)c2ccc(CSc3cccc4c3CN(C3CCC(=O)NC3=O)C4=O)cc2)C1 (stereo unspecified)
pIC50 [1]: 8.22

SMILES: O=C1CC[C@H](N2Cc3c(OCc4ccc(CN5CCOCC5)cc4)cccc3C2=O)C(=O)N1 [IBERDOMIDE]
MRT inf [2]: 43.8 min
pIC50 (MV4-11): < 4.70
pIC50 [1]: 6.95
pIC50 (MM1.S): 7.89
AUC(0-inf) [3]: 1940 ng·h/mL
clearance [4]: 43.5 mL/min/kg
Vd [5]: 1.9 L/kg
half-life [6]: 58.2 min
AUC(0-inf) [7]: 1810 ng·h/mL
half-life [8]: 54 min
Tmax [9]: 8.4 min
Cmax [10]: 2060 ng/mL
bioavailability [11]: 22.8%
Activity [12]: 22.1 g
Activity (RPMI-8226 [13]): 517 mm3
fold change (FC) (RPMI-8226 [14]): 3.42
Activity (RPMI-8226 [15]): 27.07%
Activity [16]: Non-Toxic

SMILES: Nc1ccc2c(c1)C(=O)N(C1CCC(=O)NC1=O)C2 (stereo unspecified)
pIC50 (PBMC [17]): < 4.00

SMILES: Nc1cccc2c1C(=O)N(C1CCC(=O)NC1=O)C2 (stereo unspecified)
pIC50 (PBMC [17]): < 4.00

SMILES: O=C1CCC(N2Cc3c(cccc3S(=O)(=O)Cc3ccc(CN4CCOCC4)cc3)C2=O)C(=O)N1 (stereo unspecified)
pIC50 [1]: < 4.70

The next lines start with results.

MRT inf [2]: 22.2 min
AUC(0-inf) [3]: 397 ng·h/mL
clearance [4]: 210 mL/min/kg
Vd [5]: 4.69 L/kg
half-life [6]: 52.8 min
AUC(0-inf) [7]: 288 ng·h/mL
half-life [8]: 85.8 min
Tmax [9]: 8.4 min
Cmax [10]: 496 ng/mL
bioavailability [11]: 17.6%
SMILES: O=C1CCC(N2Cc3c(SCc4ccc(CN5CCOCC5)cc4)cccc3C2=O)C(=O)N1 (stereo unspecified)
pIC50 [1]: 8.48

pIC50 (MV4-11): < 4.70
pIC50 (MM1.S): 9.40
SMILES: Cc1cccc(CSc2cccc3c2CN(C2CCC(=O)NC2=O)C3=O)c1 (stereo unspecified)
pIC50 [1]: 8.48

pIC50 (MV4-11): < 4.70
pIC50 (MM1.S): 8.96
SMILES: O=C1CCC(N2Cc3c(SCc4cccc(Cl)c4)cccc3C2=O)C(=O)N1 (stereo unspecified)
pIC50 [1]: 8.62

pIC50 (MV4-11): < 4.70
pIC50 (MM1.S): 8.54
SMILES: N#Cc1ccccc1CSc1cccc2c1CN(C1CCC(=O)NC1=O)C2=O (stereo unspecified)
pIC50 [1]: 7.52

pIC50 (MV4-11): < 4.70
pIC50 (MM1.S): 8.96
SMILES: O=C1CCC(N2Cc3c(SCc4ccccc4)cccc3C2=O)C(=O)N1 (stereo unspecified)
pIC50 [1]: 8.20

pIC50 (MV4-11): < 4.70
pIC50 (MM1.S): 8.96
SMILES: CCCCCSc1cccc2c1CN(C1CCC(=O)NC1=O)C2=O (stereo unspecified)
pIC50 [1]: 6.80

pIC50 (MV4-11): 9.70
pIC50 (MM1.S): 9.52
pIC50 (Raji): 7.69
pIC50 (RPMI-8226 [19]): 8.26
pIC50 (THP-1): 8.82
SMILES: Cc1ccc(NC(=O)NCc2ccc3c(c2)CN(C2CCC(=O)NC2=O)C3=O)cc1Cl (stereo unspecified)
pIC50 [1]: 9.40
pIC50 (Z-138): 9.40
pIC50 (JeKo-1): 8.92
pIC50 (PBMC [18]): 9.52
pIC50 (U-266): 8.70
pIC50 (Kasumi 1): 9.10

pIC50 (MV4-11): < 4.70
pIC50 (MM1.S): 9.40
pIC50 (Raji): < 4.70
pIC50 (RPMI-8226 [19]): 8.27
pIC50 (THP-1): < 4.70
SMILES: Cc1ccc(CSc2cccc3c2CN(C2CCC(=O)NC2=O)C3=O)cc1 (stereo unspecified)
pIC50 [1]: 8.54
pIC50 (Z-138): < 4.70
pIC50 (JeKo-1): < 4.70
pIC50 (PBMC [18]): < 4.70
pIC50 (U-266): 8.25
pIC50 (Kasumi 1): < 4.70

pIC50 (MV4-11): < 4.70
pIC50 (MM1.S): 8.74
SMILES: Cc1ccccc1CSc1cccc2c1CN(C1CCC(=O)NC1=O)C2=O (stereo unspecified)
pIC50 [1]: 7.78
